Test results from PubChem BioAssay (NCI).
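GI50 marks 50% less growth. The concentration for full growth arrest is given as TGI.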

Tests used:
Experiment in all cases: growth of human tumour cells (NCI), 384-well format
A549 NSCLC = tested on: A549 NSCLC
SR leukemia = tested on: SR leukemia
OVCAR-3 ovarian = tested on: OVCAR-3 ovarian
SN12C renal = tested on: SN12C renal
NCI-H522 lung = tested on: NCI-H522 lung
HOP-62 NSCLC = tested on: HOP-62 NSCLC
K-562 leukemia = tested on: K-562 leukemia
SK-OV-3 ovarian = tested on: SK-OV-3 ovarian
786-0 renal = tested on: 786-0 renal
ACHN renal = tested on: ACHN renal
SW-620 colon = tested on: SW-620 colon
UO-31 renal = tested on: UO-31 renal
SF-539 CNS = tested on: SF-539 CNS
OVCAR-8 ovarian = tested on: OVCAR-8 ovarian
NCI-H226 lung = tested on: NCI-H226 lung
CCRF-CEM leukemia = tested on: CCRF-CEM leukemia
SF-268 CNS = tested on: SF-268 CNS
RPMI-8226 leukemia = tested on: RPMI-8226 leukemia
MDA-MB-435 melanoma = tested on: MDA-MB-435 melanoma
T-47D breast = tested on: T-47D breast
NCI/ADR-RES ovarian = tested on: NCI/ADR-RES ovarian
NCI-H322M lung = tested on: NCI-H322M lung
OVCAR-5 ovarian = tested on: OVCAR-5 ovarian
HL-60(TB) leukemia = tested on: HL-60(TB) leukemia
RXF 393 renal = tested on: RXF 393 renal
MDA-MB-468 breast = tested on: MDA-MB-468 breast
U251 glioblastoma = tested on: U251 glioblastoma
NCI-H23 lung = tested on: NCI-H23 lung
HOP-92 NSCLC = tested on: HOP-92 NSCLC
HCC-2998 colon = tested on: HCC-2998 colon
M14 melanoma = tested on: M14 melanoma
SK-MEL-2 melanoma = tested on: SK-MEL-2 melanoma
UACC-257 melanoma = tested on: UACC-257 melanoma
MDA-MB-231 breast = tested on: MDA-MB-231 breast
SK-MEL-28 melanoma = tested on: SK-MEL-28 melanoma
NCI-H460 NSCLC = tested on: NCI-H460 NSCLC
MCF7 breast = tested on: MCF7 breast
OVCAR-4 ovarian = tested on: OVCAR-4 ovarian
SK-MEL-5 melanoma = tested on: SK-MEL-5 melanoma
DU-145 prostate = tested on: DU-145 prostate
LOX IMVI melanoma = tested on: LOX IMVI melanoma
HCT-116 colon = tested on: HCT-116 colon
MOLT-4 leukemia = tested on: MOLT-4 leukemia
CAKI-1 renal = tested on: CAKI-1 renal
HCT-15 colon = tested on: HCT-15 colon
MALME-3M melanoma = tested on: MALME-3M melanoma
COLO 205 colon = tested on: COLO 205 colon
SNB-19 CNS = tested on: SNB-19 CNS
TK-10 renal = tested on: TK-10 renal
BT-549 breast = tested on: BT-549 breast
IGROV1 ovarian = tested on: IGROV1 ovarian
A498 renal = tested on: A498 renal
SF-295 CNS = tested on: SF-295 CNS

Structure (SMILES): C=C1C[C@@H]2CC[C@@]34C[C@H]5O[C@H]6[C@@H](O3)[C@H]3O[C@H](CC[C@@H]3O[C@H]6[C@@H]5O4)CC(=O)C[C@@H]3[C@@H](OC)[C@@H](C[C@H](O)CN)O[C@H]3C[C@H]3O[C@@H](CC[C@@H]1O2)C[C@@H](C)C3=C
- GI50 (A549 NSCLC): < 10 nM
- TGI (A549 NSCLC): 186 nM
- GI50 (SR leukemia): < 10 nM
- TGI (SR leukemia): < 10 nM
- GI50 (OVCAR-3 ovarian): < 10 nM
- TGI (OVCAR-3 ovarian): < 10 nM
- GI50 (SN12C renal): < 10 nM
- TGI (SN12C renal): > 100000 nM
- GI50 (NCI-H522 lung): < 10 nM
- TGI (NCI-H522 lung): < 10 nM
- GI50 (HOP-62 NSCLC): < 10 nM
- TGI (HOP-62 NSCLC): 3340 nM
- GI50 (K-562 leukemia): < 10 nM
- TGI (K-562 leukemia): 12.9 nM
- GI50 (SK-OV-3 ovarian): < 10 nM
- TGI (SK-OV-3 ovarian): 84.9 nM
- GI50 ([…]-0 renal): < 10 nM
- TGI (786-0 renal): 389 nM
- GI50 (ACHN renal): 73.3 nM
- TGI (ACHN renal): > 100000 nM
- GI50 (SW-620 colon): < 10 nM
- TGI (SW-620 colon): > 100000 nM
- GI50 (UO-31 renal): 225 nM
- TGI (UO-31 renal): > 100000 nM
- GI50 (SF-539 CNS): < 10 nM
- TGI (SF-539 CNS): < 10 nM
- GI50 (OVCAR-8 ovarian): < 10 nM
- TGI (OVCAR-8 ovarian): 27.6 nM
- GI50 (NCI-H226 lung): < 10 nM
- TGI (NCI-H226 lung): 206 nM
- GI50 (CCRF-CEM leukemia): < 10 nM
- TGI (CCRF-CEM leukemia): < 10 nM
- GI50 (SF-268 CNS): < 10 nM
- TGI (SF-268 CNS): 40 nM
- GI50 (RPMI-8226 leukemia): < 10 nM
- TGI (RPMI-8226 leukemia): < 10 nM
- GI50 (MDA-MB-435 melanoma): < 10 nM
- TGI (MDA-MB-435 melanoma): < 10 nM
- GI50 (T-47D breast): < 10 nM
- TGI (T-47D breast): > 100000 nM
- GI50 (NCI/ADR-RES ovarian): 1900 nM
- TGI (NCI/ADR-RES ovarian): 5950 nM
- GI50 (NCI-H322M lung): < 10 nM
- TGI (NCI-H322M lung): > 100000 nM
- GI50 (OVCAR-5 ovarian): < 10 nM
- TGI (OVCAR-5 ovarian): > 100000 nM
- GI50 (HL-60(TB) leukemia): < 10 nM
- TGI (HL-60(TB) leukemia): < 10 nM
- GI50 (RXF 393 renal): < 10 nM
- TGI (RXF 393 renal): < 10 nM
- GI50 (MDA-MB-468 breast): < 10 nM
- TGI (MDA-MB-468 breast): < 10 nM
- GI50 (U251 glioblastoma): < 10 nM
- TGI (U251 glioblastoma): 14.1 nM
- GI50 (NCI-H23 lung): < 10 nM
- TGI (NCI-H23 lung): < 10 nM
- GI50 (HOP-92 NSCLC): < 10 nM
- TGI (HOP-92 NSCLC): 52.8 nM
- GI50 (HCC-2998 colon): < 10 nM
- TGI (HCC-2998 colon): < 10 nM
- GI50 (M14 melanoma): < 10 nM
- TGI (M14 melanoma): 2720 nM
- GI50 (SK-MEL-2 melanoma): < 10 nM
- TGI (SK-MEL-2 melanoma): < 10 nM
- GI50 (UACC-257 melanoma): < 10 nM
- TGI (UACC-257 melanoma): 85300 nM
- GI50 (MDA-MB-231 breast): < 10 nM
- TGI (MDA-MB-231 breast): 165 nM
- GI50 (SK-MEL-28 melanoma): < 10 nM
- TGI (SK-MEL-28 melanoma): > 100000 nM
- GI50 (NCI-H460 NSCLC): < 10 nM
- TGI (NCI-H460 NSCLC): < 10 nM
- GI50 (MCF7 breast): < 10 nM
- TGI (MCF7 breast): 596 nM
- GI50 (OVCAR-4 ovarian): < 10 nM
- TGI (OVCAR-4 ovarian): 974 nM
- GI50 (SK-MEL-5 melanoma): < 10 nM
- TGI (SK-MEL-5 melanoma): < 10 nM
- GI50 (DU-145 prostate): < 10 nM
- TGI (DU-145 prostate): < 10 nM
- GI50 (LOX IMVI melanoma): < 10 nM
- TGI (LOX IMVI melanoma): 43.3 nM
- GI50 (HCT-116 colon): < 10 nM
- TGI (HCT-116 colon): 219 nM
- GI50 (MOLT-4 leukemia): < 10 nM
- TGI (MOLT-4 leukemia): < 10 nM
- GI50 (CAKI-1 renal): < 10 nM
- TGI (CAKI-1 renal): > 100000 nM
- GI50 (HCT-15 colon): 69 nM
- TGI (HCT-15 colon): 3500 nM
- GI50 (MALME-3M melanoma): < 10 nM
- TGI (MALME-3M melanoma): > 100000 nM
- GI50 (COLO 205 colon): < 10 nM
- TGI (COLO 205 colon): 16.6 nM
- GI50 (SNB-19 CNS): < 10 nM
- TGI (SNB-19 CNS): 41.2 nM
- GI50 (TK-10 renal): 52.8 nM
- TGI (TK-10 renal): > 100000 nM
- GI50 (BT-549 breast): < 10 nM
- TGI (BT-549 breast): < 10 nM
- GI50 (IGROV1 ovarian): < 10 nM
- TGI (IGROV1 ovarian): > 100000 nM
- GI50 (A498 renal): < 10 nM
- TGI (A498 renal): 1100 nM
- GI50 (SF-295 CNS): 22.9 nM
- TGI (SF-295 CNS): 246 nM
